Assay results: PubChem BioAssay AID1963434 (Molecular Pharmacology Branch, DTP, NCI, 2024)
Where “and” joins values, the source holds several entries; their conditions need not be identical. Equal entries are not always repeated.

Test system: 755483-174-R-J1-PDC complex spheroid growth, percent test/control
Experiment: Anticancer human tumor 755483-174-R-J1-PDC patient-derived rhabdomyosarcoma cell line growth inhibition [Asc]
Details: for viability, T/C: stronger effect = lower value; active = viability on the fitted dose curve at most 10% of control; inactive = the rest
How it was run: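 Complex spheroids combining tumor cells with HUVEC endothelial cells and human MSCs, at 37 degrees C, 5% CO2; agents tested alone or combined, half-log dilutions from at or near clinical Cmax, or 10 microM if Cmax unknown.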

[1] = curve of first compound, second compound 0.1 µM
[2] = curve of first compound, second compound 0.316 µM
[3] = curve of first compound, second compound 1 µM
[4] = curve of first compound, second compound 3.16 µM
[5] = curve of first compound, second compound 10 µM
[6] = second compound 0.1 µM, first compound 0.00316 µM
[7] = second compound 0.1 µM, first compound 0.01 µM
[8] = second compound 0.1 µM, first compound 0.0316 µM
[9] = second compound 0.1 µM, first compound 0.1 µM
[10] = second compound 0.316 µM, first compound 0.00316 µM
[11] = second compound 0.316 µM, first compound 0.01 µM
[12] = second compound 0.316 µM, first compound 0.0316 µM
[13] = second compound 0.316 µM, first compound 0.1 µM
[14] = second compound 1 µM, first compound 0.00316 µM
[15] = second compound 1 µM, first compound 0.01 µM
[16] = second compound 1 µM, first compound 0.0316 µM
[17] = second compound 1 µM, first compound 0.1 µM
[18] = second compound 3.16 µM, first compound 0.00316 µM
[19] = second compound 3.16 µM, first compound 0.01 µM
[20] = second compound 3.16 µM, first compound 0.0316 µM
[21] = second compound 3.16 µM, first compound 0.1 µM
[22] = second compound 10 µM, first compound 0.00316 µM
[23] = second compound 10 µM, first compound 0.01 µM
[24] = second compound 10 µM, first compound 0.0316 µM
[25] = second compound 10 µM, first compound 0.1 µM
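Also: spheroids exposed to compounds for seven days before readout.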

COc1c(OCCCN2CCOCC2)ccc2c3n(c(=NC(=O)c4cnc(N)nc4)nc12)CCN3 + CCN1C(C(=O)NC23CCC(C(=O)O)(CC2)CC3)C(c2cccc(Cl)c2F)C2(C(=O)Nc3cc(Cl)ccc32)C12CCCCC2
31.3 nM: IC50 (curve of first compound, second compound 0.03 µM)
13.7 nM: IC50 (curve of first compound, second compound 0.0949 µM)
31.2 nM: IC50 (curve of first compound, second compound 0.3 µM)
inactive: viability, T/C (second compound 0.03 µM, first compound 0.00316 µM) 70.7% | viability, T/C (second compound 0.03 µM, first compound 0.01 µM) 70.5% | viability, T/C (second compound 0.03 µM, first compound 0.0316 µM) 49.1% | viability, T/C (second compound 0.03 µM, first compound 0.1 µM) 19.2% | viability, T/C (second compound 0.0949 µM, first compound 0.00316 µM) 75.5% | viability, T/C (second compound 0.0949 µM, first compound 0.01 µM) 39.5% | viability, T/C (second compound 0.0949 µM, first compound 0.0316 µM) 48.5% | viability, T/C (second compound 0.0949 µM, first compound 0.1 µM) 25.9% | viability, T/C (second compound 0.0949 µM, first compound 0.316 µM) 25.9% | viability, T/C (second compound 0.0949 µM, first compound 1 µM) 7.18% | viability, T/C (second compound 0.3 µM, first compound 0.00316 µM) 82.1% | viability, T/C (second compound 0.3 µM, first compound 0.01 µM) 89.5% | viability, T/C (second compound 0.3 µM, first compound 0.0316 µM) 46.3% | viability, T/C (second compound 0.3 µM, first compound 0.1 µM) 22.7% | viability, T/C (second compound 0.3 µM, first compound 0.316 µM) 12.7% | viability, T/C (second compound 0.3 µM, first compound 1 µM) 5.77% | viability, T/C (second compound 0.949 µM, first compound 0.00316 µM) 75.7% | viability, T/C (second compound 0.949 µM, first compound 0.01 µM) 64.9% | viability, T/C (second compound 0.949 µM, first compound 0.0316 µM) 45.9% | viability, T/C (second compound 0.949 µM, first compound 0.1 µM) 30.7% | viability, T/C (second compound 0.949 µM, first compound 0.316 µM) 12.1% | viability, T/C (second compound 3 µM, first compound 0.00316 µM) 53.2% | viability, T/C (second compound 3 µM, first compound 0.01 µM) 64.1% | viability, T/C (second compound 3 µM, first compound 0.0316 µM) 59.9% | viability, T/C (second compound 3 µM, first compound 0.1 µM) 21.3% | viability, T/C (second compound 3 µM, first compound 0.316 µM) 13.8% | viability, T/C (second compound 3 µM, first compound 1 µM) 7.35%
active: viability, T/C (second compound 0.03 µM, first compound 0.316 µM) 8.52% | viability, T/C (second compound 0.03 µM, first compound 1 µM) 6.46% | viability, T/C (second compound 0.949 µM, first compound 1 µM) 9.33%
41.7 nM: IC50 (curve of first compound, second compound 3 µM)
26.2 nM: IC50 (curve of first compound, second compound 0.949 µM)

O=C(c1ccc(F)c(F)c1Nc1ccc(I)cc1F)N1CC(O)([C@@H]2CCCCN2)C1 + Cc1c(S(C)(=O)=O)c(-c2cc(F)cc(N3CCN(c4ccc(NS(=O)(=O)c5ccc(NC(CCN6CCC(C(=O)OCCCP(=O)(O)O)CC6)CSc6ccccc6)c(S(=O)(=O)C(F)(F)F)c5)cc4)CC3)c2)c(-c2ccc(Cl)cc2)n1C(C)C
inactive: viability, T/C [6] 46.3% | viability, T/C [7] 71.5% | viability, T/C [8] 33.4% | viability, T/C [9] 45.1% | viability, T/C (second compound 0.1 µM, first compound 0.316 µM) 30.7% | viability, T/C [10] 41.9% | viability, T/C [11] 42% | viability, T/C [12] 44.8% | viability, T/C [13] 43.7% | viability, T/C (second compound 0.316 µM, first compound 0.316 µM) 22% | viability, T/C [14] 39.2% | viability, T/C [15] 44.3% | viability, T/C [16] 42.1% | viability, T/C [17] 36.9% | viability, T/C (second compound 1 µM, first compound 0.316 µM) 24.6% | viability, T/C [18] 38.9% | viability, T/C [19] 25% | viability, T/C [20] 26.6% | viability, T/C [21] 29.5% | viability, T/C (second compound 3.16 µM, first compound 0.316 µM) 15.3% | viability, T/C [22] 34.5% | viability, T/C [23] 42% | viability, T/C [24] 32.1% | viability, T/C [25] 29.1% | viability, T/C (second compound 10 µM, first compound 0.316 µM) 11.1%
< 3.16 nM: IC50 [2] | IC50 [3] | IC50 [4] | IC50 [5]
21.6 nM: IC50 [1]
active: viability, T/C (second compound 0.1 µM, first compound 1 µM) 4.92% | viability, T/C (second compound 0.316 µM, first compound 1 µM) 6.11% | viability, T/C (second compound 1 µM, first compound 1 µM) 4.55% | viability, T/C (second compound 3.16 µM, first compound 1 µM) 3.65% | viability, T/C (second compound 10 µM, first compound 1 µM) 2.13%

CCN1C(C(=O)NC23CCC(C(=O)O)(CC2)CC3)C(c2cccc(Cl)c2F)C2(C(=O)Nc3cc(Cl)ccc32)C12CCCCC2 (stereo not given)
inactive: viability, T/C (compound 0.00949 µM) 92.3% and 75.3%
> 3000 nM: IC50 (compound alone, run of 09/27/2022) | IC50 (curve of compound)

Cn1ncnc1[C@H]1c2n[nH]c(=O)c3cc(F)cc(c23)N[C@@H]1c1ccc(F)cc1 + Cc1c(S(C)(=O)=O)c(-c2cc(F)cc(N3CCN(c4ccc(NS(=O)(=O)c5ccc(NC(CCN6CCC(C(=O)OCCCP(=O)(O)O)CC6)CSc6ccccc6)c(S(=O)(=O)C(F)(F)F)c5)cc4)CC3)c2)c(-c2ccc(Cl)cc2)n1C(C)C
inactive: viability, T/C (second compound 0.1 µM, first compound 0.000316 µM) 50.8% | viability, T/C (second compound 0.1 µM, first compound 0.001 µM) 50.7% | viability, T/C [6] 49.3% | viability, T/C [7] 30.7% | viability, T/C [8] 28.1% | viability, T/C [9] 35% | viability, T/C (second compound 0.316 µM, first compound 0.000316 µM) 46.2% | viability, T/C (second compound 0.316 µM, first compound 0.001 µM) 41% | viability, T/C [10] 34.7% | viability, T/C [11] 38.1% | viability, T/C [12] 25% | viability, T/C [13] 30.3% | viability, T/C (second compound 1 µM, first compound 0.000316 µM) 38.2% | viability, T/C (second compound 1 µM, first compound 0.001 µM) 32.1% | viability, T/C [14] 35% | viability, T/C [15] 34% | viability, T/C [16] 23.7% | viability, T/C [17] 21.6% | viability, T/C (second compound 3.16 µM, first compound 0.000316 µM) 38% | viability, T/C (second compound 3.16 µM, first compound 0.001 µM) 39.3% | viability, T/C [18] 24.7% | viability, T/C [19] 18.6% | viability, T/C [20] 19.2% | viability, T/C [21] 18.8% | viability, T/C (second compound 10 µM, first compound 0.000316 µM) 32.6% | viability, T/C (second compound 10 µM, first compound 0.001 µM) 39.4% | viability, T/C [22] 32.9% | viability, T/C [23] 29.5% | viability, T/C [24] 16.7% | viability, T/C [25] 15.7%
< 0.316 nM: IC50 [2] | IC50 [3] | IC50 [4] | IC50 [5]
1.85 nM: IC50 [1]

C=C(F)C(=O)N1CCN(c2nc(OCC3CCCN3C)nc3c2CCN(c2cccc4cccc(Cl)c24)C3)CC1CC#N (stereo not given)
active: viability, T/C (compound 10 µM) 0.14% and 0.16% and 0.18%
1810 nM and 1760 nM and 1880 nM: IC50 (curve of compound)
inactive: viability, T/C (compound 0.0316 µM) 95.7% and 76.6% and 114% | viability, T/C (compound 0.1 µM) 91% and 57% and 109% | viability, T/C (compound 0.316 µM) 95% and 99.3% and 78.9% | viability, T/C (compound 1 µM) 80.1% and 74.6% and 88.8% | viability, T/C (compound 3.16 µM) 21.4% and 23.7% and 19.3%
